Test results as given in patent publication US4783443A, “Amino acyl cephalosporin derivatives” (The University of Chicago, priority 1986, dated 1988).
Converted amounts (≈) assume the structure as drawn.

How the values were obtained:
Type in all cases: cell-based
[1] = test system: Staphylococcus epidermidis MO1554(P^S M^S); assay: Minimum inhibitory concentration (MIC); settings: Staphylococcus epidermidis MO1554 (penicillin- and methicillin-sensitive, P^S M^S)
Text: (§1) The antibacterial effects of compounds of the invention have been assessed by determination of the minimum inhibitory concentration (M.I.C.) value against a variety of Gram-negative and -positive bacteria. The microbial susceptibility data for four compounds, together with those for the antibacterial dipeptide beta-Cl-LAla-beta-Cl-LAla, are given in Table I.
(§2) in uM to facilitate a meaningful comparison of the approximate MICs among
(§3) the tested compounds; an appreciation of the MIC values in ug/mL can be
(§4) obtained by multiplying each value (μM) by 0.55
(§5) ^(k) P and M refer to penicillin and methicillin, respectively.

[2] = test system: Staphylococcus epidermidis (P^R M^R); assay: Minimum inhibitory concentration (MIC); settings: no strain number
Text: as §1, §2, §3, §4, §5

[3] = test system: Staphylococcus epidermidis 1239(P^R M^R); assay: Minimum inhibitory concentration (MIC)
Text: as §1, §2, §3, §4, §5

[4] = test system: Escherichia coli JSR-O Cl-Pep^R; assay: Minimum inhibitory concentration (MIC); settings: Escherichia coli, read-out: Minimum Inhibitory Concentration
Text: as §1, §2, §3, §4
^(g) This ia an E. coli JSRO strain selected for resistance to the
A comparison of the data for E. coli strains JSR-O and JSR-O Cl-Pep^R is of special interest. E. coli Cl-Pep^R is an E. coli JSR-O mutant which was selected for resistance to the dipeptide (f). […] Note that the MIC values for (d) and (e) against E. coli Cl-Pep^R (100 and 50 μM, respectively) are quite similar.

[5] = test system: Staphylococcus aureus PSL-13 Pen^R; assay: Minimum inhibitory concentration (MIC); settings: possesses a betalactamase
Text: as §1, §2, §3, §4

[6] = test system: Enterobacter areogenes; assay: Minimum inhibitory concentration (MIC); settings: Gram-negative
Text: as §1, §2, §3, §4

[7] = test system: Hemophilus influenzae 487; assay: Minimum inhibitory concentration (MIC); settings: Haemophilus influenzae, possesses a betalactamase
Text: as §1, §2, §3, §4

[8] = test system: Escherichia coli JSR-O; assay: Minimum inhibitory concentration (MIC); settings: Escherichia coli JSR-O; parental strain; read-out: Minimum Inhibitory Concentration
Text: as §1, §2, §3, §4

[9] = test system: Serratia marcescens; assay: Minimum inhibitory concentration (MIC); settings: Gram-negative
Text: as §1, §2, §3, §4

[10] = test system: Staphylococcus aureus PSL-15 Pen^R; assay: Minimum inhibitory concentration (MIC); settings: possesses a betalactamase
Text: as §1, §2, §3, §4

[11] = test system: Hemophilus influenzae 236; assay: Minimum inhibitory concentration (MIC); settings: Haemophilus influenzae
Text: as §1, §2, §3, §4

[12] = test system: Staphylococcus aureus PSL-14 Pen^R; assay: Minimum inhibitory concentration (MIC); settings: possesses a betalactamase
Text: as §1, §2, §3, §4

[13] = test system: Staphylococcus aureus H-2690-8^R; assay: Minimum inhibitory concentration (MIC); settings: possesses a betalactamase
Text: as §1, §2, §3, §4

[14] = test system: Shigella flexneri; assay: Minimum inhibitory concentration (MIC); settings: Gram-negative
Text: as §1, §2, §3, §4

[15] = test system: Staphylococcus aureus T-4624-8 Pen^R; assay: Minimum inhibitory concentration (MIC); settings: possesses a betalactamase
Text: as §1, §2, §3, §4

[16] = test system: Staphylococcus aureus PSL-16 Pen^R; assay: Minimum inhibitory concentration (MIC); settings: possesses a betalactamase
Text: as §1, §2, §3, §4

[17] = test system: Streptococcus faecalis; assay: Minimum inhibitory concentration (MIC); settings: Enterococcus faecalis; Streptococcus faecalis; Gram positive; read-out: Minimum Inhibitory Concentration
Text: as §1, §2, §3, §4

[18] = test system: Salmonella typhimurium; assay: Minimum inhibitory concentration (MIC); settings: Salmonella enterica, Gram-negative
Text: as §1, §2, §3, §4

[19] = test system: Streptococcus agalactiae; assay: Minimum inhibitory concentration (MIC); settings: Gram positive
Text: as §1, §2, §3, §4

[20] = test system: Psuedomonas aeruginosa; assay: Minimum inhibitory concentration (MIC); settings: Gram-negative
Text: as §1, §2, §3, §4

[21] = test system: Escherichia coli DB4548; assay: Minimum inhibitory concentration (MIC)
Text: as §1, §2, §3, §4

[22] = test system: Escherichia coli CR; assay: Minimum inhibitory concentration (MIC); settings: Escherichia coli CR; read-out: Minimum Inhibitory Concentration
Text: as §1, §2, §3, §4

[23] = test system: Morganella morganii; assay: Minimum inhibitory concentration (MIC); settings: Gram-negative
Text: as §1, §2, §3, §4

[24] = test system: Hemophilus influenzae 238; assay: Minimum inhibitory concentration (MIC); settings: Haemophilus influenzae
Text: as §1, §2, §3, §4

[25] = test system: Enterobacter cloacae; assay: Minimum inhibitory concentration (MIC); settings: Gram-negative, read-out: Minimum Inhibitory Concentration
Text: as §1, §2, §3, §4

[26] = test system: Klebsiella pneumoniae; assay: Minimum inhibitory concentration (MIC); settings: Gram-negative
Text: as §1, §2, §3, §4

[27] = test system: Salmonella typhimurium LT 2; assay: Minimum inhibitory concentration (MIC); settings: Salmonella enterica, Gram-negative
Text: as §1, §2, §3, §4

[28] = test system: Gram-negative and -positive bacteria; assay: Antibacterial activity, general trends of the MIC panel of Table I; settings: E. cloacae, all of the susceptible E. coli strains, H. influenzae 487, all of the S. aureus strains
Text: as §1

[29] = test system: Escherichia coli JSR-O pBR322; assay: Minimum inhibitory concentration (MIC); settings: read-out: Minimum Inhibitory Concentration
Text: as §1, §2, §3, §4
^(i) Contains the plasmid gene encoding the TEM betalactamase.

[30] = test system: Escherichia coli Ceph^R; assay: Minimum inhibitory concentration (MIC); settings: Escherichia coli, read-out: Minimum Inhibitory Concentration
Text: as §1, §2, §3, §4
(§6) ^(j) Resistant to cephalothin (MIC >200 uM);

[31] = test system: Corynebacterium JKR-2285; assay: Minimum inhibitory concentration (MIC); settings: JKR2285; Corynebacterium JKR-2285; resistant to cephalothin; read-out: Minimum Inhibitory Concentration
Text: as §1, §2, §3, §4, §6

[32] = test system: Corynebacterium JKM-4754; assay: Minimum inhibitory concentration (MIC); settings: JKM4754; Corynebacterium JKM-4754; resistant to cephalothin; read-out: Minimum Inhibitory Concentration
Text: as §1, §2, §3, §4, §6

| Structure (SMILES) | MIC [1] [µM] | MIC [2] [µM] | MIC [3] [µM] | MIC [4] [µM] | MIC [5] [µM] | MIC [6] [µM] | MIC [7] [µM] | MIC [8] [µM] | MIC [9] [µM] | MIC [10] [µM] | MIC [11] [µM] | MIC [12] [µM] | MIC [13] [µM] | MIC [14] [µM] | MIC [15] [µM] | MIC [16] [µM] | MIC [17] [µM] | MIC [18] [µM] | MIC [19] [µM] | MIC [20] [µM] | other results |
| --- | --- | --- | --- | --- | --- | --- | --- | --- | --- | --- | --- | --- | --- | --- | --- | --- | --- | --- | --- | --- | --- |
| C[C@H](N)C(=O)OCC1=C(C(=O)O)N2C(=O)[C@@H](NC(=O)Cc3cccs3)[C@H]2SC1 [(b), 7-beta-(2-thienylacetamido)-3-(L-alanyloxymethyl)-3-cephem-4-carboxylic acid] | ≤ 0.78 | 1.56 (≈ 0.664 µg/mL) | ≤ 0.78 | > 200 | 200 (≈ 85.1 µg/mL) | > 200 | 50 (≈ 21.3 µg/mL) | 100 (≈ 42.5 µg/mL) | > 200 | 100 (≈ 42.5 µg/mL) | 50 (≈ 21.3 µg/mL) | > 200 | 100 (≈ 42.5 µg/mL) | 100 (≈ 42.5 µg/mL) | 100 (≈ 42.5 µg/mL) | > 200 | > 100 | > 200 | ≤ 0.78 | > 200 | MIC [21]: 50 µM (≈ 21.3 µg/mL); MIC [22]: 100 µM (≈ 42.5 µg/mL); MIC [23]: 100 µM (≈ 42.5 µg/mL); MIC [24]: ≤ 0.78 µM; MIC [25]: > 200 µM; MIC [26]: > 200 µM; MIC [27]: 50 µM (≈ 21.3 µg/mL); sensitivity observed [28]: no activity was seen; MIC [29]: 50 µM (≈ 21.3 µg/mL); MIC [30]: > 200 µM; MIC [31]: > 200 µM; MIC [32]: > 200 µM |
| N[C@@H](CCl)C(=O)OCC1=C(C(=O)O)N2C(=O)[C@@H](NC(=O)Cc3cccs3)[C@H]2SC1 [(c), 7-beta-(2-thienylacetamido)-3(beta-chloro-L-alanyloxymethyl)-3-cephem-4-carboxylic acid] | ≤ 0.78 | ≤ 0.78 | ≤ 0.78 | > 200 | 25 (≈ 11.5 µg/mL) | > 200 | 25 (≈ 11.5 µg/mL) | 100 (≈ 46 µg/mL) | > 200 | 12.5 (≈ 5.75 µg/mL) | 25 (≈ 11.5 µg/mL) | 25 (≈ 11.5 µg/mL) | 6.25 (≈ 2.87 µg/mL) | 100 (≈ 46 µg/mL) | 6.25 (≈ 2.87 µg/mL) | 255 (≈ 117 µg/mL) | 200 (≈ 92 µg/mL) | 100 (≈ 46 µg/mL) | ≤ 0.78 | > 200 | MIC [21]: 50 µM (≈ 23 µg/mL); MIC [22]: 50 µM (≈ 23 µg/mL); MIC [23]: 100 µM (≈ 46 µg/mL); MIC [24]: ≤ 0.78 µM; MIC [25]: 100 µM (≈ 46 µg/mL); MIC [26]: > 200 µM; MIC [27]: 25 µM (≈ 11.5 µg/mL); sensitivity observed [28]: sensitivity was observed; MIC [30]: > 200 µM; MIC [31]: > 200 µM; MIC [32]: > 200 µM |
